{
  "source": "paper PMC12679610",
  "about": "“Impact of supersaturation on growth, critical radius, and size in neomycin nanoparticle crystallization using anti-solvent and CTAB” (RSC Advances, 2025)",
  "key": {"[1]": {"experiment": "Interfacial energy from ln tind versus 1/T^3(ln S)^2 plot", "format": "physicochemical", "conditions": "CTAB 0.6 g kg^−1, 25 °C", "procedure": "Interfacial energy at the solid–liquid interface, can typically be regarded as an intrinsic property of the system.[100] It is indeed a key parameter strongly influenced by the solvent composition and the presence of surfactants such as CTAB.[29,101] In this study, the effect of CTAB at a constant concentration of 0.6 g kg^−1 on the interfacial energy of the crystallization system of neomycin at various concentrations (20, 30, 40, and 50 g kg^−1) was investigated at a temperature of 25 °C. Key system parameters included the density of neomycin (ρ = 640 kg m^−3), measured using the volume displacement method; the shape factor (f = 0.058)[16,29] and the molar mass (M = 908.88 g mol^−1). […] At various concentrations of neomycin (20, 30, 40, and 50 g kg^−1), a comparison was made between the system stabilized with CTAB and previous studies that utilized PVP as a stabilizer.[29] […] This distinction can be attributed to a significant reduction in surface energy in the presence of CTAB, as well as distinct molecular interactions between neomycin and the cationic surfactant, which subsequently influenced solubility and nucleation behavior.[102] […] The proposed mechanism for this observation includes the effective adsorption of CTAB onto nanoparticle surfaces, alterations in the local solubility of neomycin, and the formation of stable electrical double layers at the interface.[103] Furthermore, increased agitation enhanced mass transfer, improved surfactant distribution, and promoted the formation of stable nuclei, ultimately leading to a significant reduction in surface energy and effective suppression of nanoparticle aggregation.[104]"}, "[2]": {"design": "method as in PMID 40028493", "conditions": "PVP as stabilizer, cited from earlier work"}, "[3]": {"experiment": "Induction time measurement by in situ turbidimeter (antisolvent crystallization)", "format": "physicochemical", "conditions": "CTAB 0.6 g kg^−1, 25 °C", "procedure": "In this section, the method for the synthesis of neomycin nanoparticles is explained in detail. First, an exact amount of neomycin powder (purity ≥ 95%) was weighed using a digital analytical balance (accuracy: […]) based on the desired equilibrium concentration. The weighed neomycin was then added to 10 g of double-distilled water (25 °C). To ensure complete dissolution, the mixture was homogenized using a magnetic stirrer at controlled speeds of 300, 350, 400, and 450 rpm for 20 minutes. This range of stirring speeds was selected to investigate the effect of shear force on solution homogeneity. After confirming the homogeneity of the neomycin solution, a predetermined amount of CTAB surfactant with a concentration established from prior studies was added to the beaker. To achieve optimal mixing, the stirring system was activated at a constant speed between 300 and 450 rpm, and the mixing process continued until equilibrium was reached. The solution temperature was continuously monitored using a calibrated digital thermometer (±0.1 °C). A turbidity sensor was installed 2 cm from the crystallizer wall to measure changes in turbidity. Pure acetone (HPLC grade) was added dropwise (0.02 mL per drop) at 5-minute intervals. The first signs of physical change (e.g., localized cloudiness) were recorded as the initial saturation point. Acetone addition continued until stable turbidity (supersaturation) was achieved under isothermal conditions (25 °C). The induction time (the interval between initial saturation and supersaturation), as clearly depicted in Fig. 1, Section C (the induction time segment of steps 1 to 4), was measure using a synchronized turbidimeter and reaction timer data. To ensure reproducibility, the entire process was repeated in four independent trials under controlled conditions (constant temperature, humidity, and lighting).\nInduction time represents a key parameter in crystallization processes, being predominantly influenced by three factors of supersaturation, temperature, and agitation rate.[29,32] This parameter characterizes the time interval between the onset of initial physical changes (saturated state) and the complete formation of a turbid phase (supersaturated state) within the system. Investigations indicate that both the optimal agitation speed and the application of dynamic shock have a significant influence on the system's supersaturation level.[29,33,35,36] A sudden increase in agitation rate initially induces localized supersaturation reduction through turbulence generation at the interface between unstable and metastable zones. […] CTAB modulates the process by reducing surface energy and stabilizing subcritical clusters, which shortens the nucleation time and broadened the metastable zone. Agitation dynamics initially cause a temporary decrease in localized supersaturation (dynamic shock), followed by a stabilization phase that enables controlled crystal growth.\nMethodologically, induction time was measured using both visual observation and in situ turbidimetry."}, "[4]": {"conditions": "initial neomycin 20 g kg solvent^−1"}, "[5]": {"conditions": "initial neomycin 30 g kg solvent^−1"}},
  "note": "Read-outs that look alike come from different tables or passages of the source.",
  "data": [
    {"compound": "NC[C@@H]1O[C@H](O[C@H]2[C@@H](O)[C@H](O[C@@H]3[C@@H](O)[C@H](N)C[C@H](N)[C@H]3O[C@H]3O[C@H](CN)[C@@H](O)[C@H](O)[C@H]3N)O[C@@H]2CO)[C@H](N)[C@@H](O)[C@@H]1O.O=S(=O)(O)O", "note": "[neomycin sulfate]", "values": [
      {"measurement": "Interfacial energy this work", "setting": "[1]; [4]", "result": 1.33, "unit": "mJ m^−2"},
      {"measurement": "Interfacial energy this work", "setting": "[1]; [5]", "result": 1.41, "unit": "mJ m^−2"},
      {"measurement": "Interfacial energy this work", "setting": "[1]; initial neomycin 40 g kg solvent^−1", "result": 1.9, "unit": "mJ m^−2"},
      {"measurement": "Interfacial energy this work", "setting": "[1]; initial neomycin 50 g kg solvent^−1", "result": 2.14, "unit": "mJ m^−2"},
      {"measurement": "Interfacial energy, Motahari et al.", "setting": "[2]; [4]", "result": 7.68, "unit": "mJ m^−2"},
      {"measurement": "Interfacial energy, Motahari et al.", "setting": "[2]; [5]", "result": 8.056, "unit": "mJ m^−2"},
      {"measurement": "Induction time", "setting": "[3]; 300 rpm, initial neomycin 20 g kg^−1, S 1.18", "result": 112, "unit": "s"},
      {"measurement": "Induction time", "setting": "[3]; 300 rpm, initial neomycin 20 g kg^−1, S 1.33", "result": 91, "unit": "s"},
      {"measurement": "Induction time", "setting": "[3]; 300 rpm, initial neomycin 20 g kg^−1, S 1.45", "result": 86, "unit": "s"},
      {"measurement": "Induction time", "setting": "[3]; 300 rpm, initial neomycin 20 g kg^−1, S 1.66", "result": 79, "unit": "s"},
      {"measurement": "Induction time", "setting": "[3]; 350 rpm, initial neomycin 30 g kg^−1, S 1.2", "result": 101, "unit": "s"},
      {"measurement": "Induction time", "setting": "[3]; 350 rpm, initial neomycin 30 g kg^−1, S 1.25", "result": 94, "unit": "s"},
      {"measurement": "Induction time", "setting": "[3]; 350 rpm, initial neomycin 30 g kg^−1, S 1.28", "result": 89, "unit": "s"},
      {"measurement": "Induction time", "setting": "[3]; 350 rpm, initial neomycin 30 g kg^−1, S 1.43", "result": 81, "unit": "s"},
      {"measurement": "Induction time", "setting": "[3]; 350 rpm, initial neomycin 30 g kg^−1, S 1.67", "result": 74, "unit": "s"},
      {"measurement": "Induction time", "setting": "[3]; 400 rpm, initial neomycin 40 g kg^−1, S 1.29", "result": 99, "unit": "s"},
      {"measurement": "Induction time", "setting": "[3]; 400 rpm, initial neomycin 40 g kg^−1, S 1.379", "result": 96, "unit": "s"},
      {"measurement": "Induction time", "setting": "[3]; 400 rpm, initial neomycin 40 g kg^−1, S 1.48", "result": 83, "unit": "s"},
      {"measurement": "Induction time", "setting": "[3]; 400 rpm, initial neomycin 40 g kg^−1, S 1.66", "result": 76, "unit": "s"},
      {"measurement": "Induction time", "setting": "[3]; 400 rpm, initial neomycin 40 g kg^−1, S 1.9", "result": 72, "unit": "s"},
      {"measurement": "Induction time", "setting": "[3]; 450 rpm, initial neomycin 50 g kg^−1, S 1.351", "result": 90, "unit": "s"},
      {"measurement": "Induction time", "setting": "[3]; 450 rpm, initial neomycin 50 g kg^−1, S 1.408", "result": 84, "unit": "s"},
      {"measurement": "Induction time", "setting": "[3]; 450 rpm, initial neomycin 50 g kg^−1, S 1.47", "result": 77, "unit": "s"},
      {"measurement": "Induction time", "setting": "[3]; 450 rpm, initial neomycin 50 g kg^−1, S 1.666", "result": 70, "unit": "s"},
      {"measurement": "Induction time", "setting": "[3]; 450 rpm, initial neomycin 50 g kg^−1, S 1.785", "result": 64, "unit": "s"}
    ]}
  ]
}
